Source: US7888293B2, “Compositions and methods relating to orthogonal ribosome mRNA pairs” (priority 2005, dated 2011)

Columns and labels:
Assay type in all cases: cell-based, E. coli
[1] = tested on: O-mRNA-Ccat; assay: Translation of cat from O-mRNA-Ccat, chloramphenicol resistance, compatible rRNA plasmids
Text: The RSF rRNA expression plasmid was derived from the previously described Col E1 expression plasmid (pTrc16S23S; Rackham & Chin, 2005, Nature Chem. Biol. 1: 159-166). The RSF1030 replicon, containing a kanamycin resistance gene, was amplified by PCR from pRSFDuet-1 (Novagen) using the oligonucleotides 5′-[…]-3′(SEQ ID NO: 120) and 5′-[…]-3′ (SEQ ID NO: 121). The resulting PCR product was digested with Kpn I and Sph I and used to replace the Kpn I, Sph I replicon-containing portion of pTrc 16S23S ribosome plasmids. CAT activity assays for orthogonal ribosome activity were performed as described in Rackham & Chin, 2005, supra).
One vector for rRNA production has a ColE1 origin of replication and an ampicillin resistance gene and is present at about 50 copies per cell. A second vector for rRNA production has an RSF origin of replication and a kanamycin resistance gene, and is present at about 100 copies per cell. […] To ascertain the effect of plasmid flanking sequences and plasmid copy number on the activity of the O-ribosomes incorporating plasmid-encoded rRNA, the translation of the chloramphenicol acetyl transferase gene (cat) from O-mRNA-Ccat (a version of cat with the 5′ orthogonal ribosome binding site C) was measured. […]

[2] = tested on: O-mRNA-Cα and O-mRNA-Aω; assay: Boolean AND gate, β-galactosidase FDG fluorescence; conditions: BW26444 cells
Procedure: The AND function was created in BW26444 cells, which are deleted in lacZ. Their genotype is (Δ(araD-araB)567, Δ(lacA-lacZ)519(::FRT), laclp-4000(lacl^Q), λ^−, rpoS396(Am), rph-1, Δ(rhaD-rhaB)568, hsdR514). Heat shock competent BW26444 cells containing the logic gate plasmid were prepared by standard CaCl2 treatment, and combinations of rRNA inputs accessed by double transformation. Transformed cells were recovered in SOB with 2% glucose and transferred to LB agar containing 2% glucose, 50 μg ml^−1 ampicillin, 25 μg ml^−1 kanamycin, 12.5 μg ml^−1 tetracycline and incubated (16 h, 37° C.). Individual colonies were transferred to each well of a 96 well culture block containing 100 μl of media (LB containing 2% glucose, 50 μg ml^−1 ampicillin, 25 μg ml^−1 kanamycin, 12.5 μg ml^−1 tetracycline) and grown overnight. Cells were pelleted by centrifugation (3000 g, 5 min) and resuspended in 1 ml of LB containing 50 μg ml^−1 ampicillin, 25 μg ml^−1 kanamycin, 12.5 μg ml^−1 tetracycline. After a further 1 h incubation (37° C., 250 rpm) cells were supplemented with isopropyl-β-D-thiogalactopyranoside (to 1 mM), and incubated (37° C., 250 rpm, 4 h) and the OD600 measured. […] An equal volume of 2× buffer Z (120 mM Na2HPO4, 80 mM NaH2PO4, 20 mM KCl, 2 mM MgSO4, 100 mM β-mercaptoethanol) containing fluorescein di-β-D-galactopyranoside (Molecular Probes, final concentration 0.5 mM) was added and incubated (22° C.) until a strong fluorescent signal was detected (approximately 5 min). […] Fluorescence was detected using a Spectra Max Gemini XS (Molecular Devices), with excitation at […] and emission detection at 450 nm.
Fluorescence was normalized for cell density and time of incubation with β-galactosidase substrate, using the equation: Fluorescence=1000×(raw fluorescence450 nm)/(t.V.OD600) Where (t) is time of incubation in seconds and (V) is the volume of culture used. […]
Cells containing a plasmid encoding both O-mRNA-Cα and O-mRNA-Aω were programmed with either wild-type rRNA, rRNA-A, rRNA-C or rRNA-C and rRNA-A together, and the conversion of FDG to fluorescein measured. […]

[3] = tested on: O-mRNA-Aα and O-mRNA-Cα; assay: Boolean OR gate, β-galactosidase FDG fluorescence; conditions: OR gate, DH10B

| Substance | IC50 chloramphenicol resistance ([1]; ColE1 plasmid) | IC50 chloramphenicol resistance ([1]; RSF plasmid) | fluorescence (conversion of FDG to fluorescein) [2] | fluorescence signal above background [3] | fluorescence [3] |
| --- | --- | --- | --- | --- | --- |
| rRNA-C: O-rRNA-C, SEQ ID NO:129, orthogonal 16S rRNA cognate to O-mRNA-C; probably rRNA-9 (AUCAUGGGAUUA; expressed or natural sequence) | 150 µg/mL | 250 µg/mL | low fluorescence | 15 fold |  |
| rRNA-A: O-rRNA-A, SEQ ID NO:125, orthogonal 16S rRNA cognate to O-mRNA-A; probably rRNA-2 (AUCACUGUGGUA; expressed or natural sequence) |  |  | low fluorescence | 10 fold |  |
| wild-type rRNA: wild-type 16S rRNA, SEQ ID NO:116, plasmid-encoded control input (AUCACCUCCUUA; listed as Escherichia coli) [reference compound] |  |  | low fluorescence |  | comparable to that observed in the absence of plasmid-encoded a fragment |
